Data on 5 compounds can be found in patent US5723449A, “Methods and compositions for inhibiting uridine secretion” (priority 1996, dated 1998).

The nature of data set [1]: Administration of dilazep to Rhesus monkeys, plasma uridine levels and toxicity. The data set is classed as in vivo. The following applies: dilazep 1 to 2 mg/kg of body weight per day. How it is done:
Uridine secretion can be inhibited by administering compounds of the type noted above by Formula (I) or by administering the uridine competing compounds noted above. Uridine secretion inhibiting compounds of the type denoted by Formula (I) typically are administered at preferred doses in the range of about 1 to 5 mg/kg of body weight 2 to 3 times per day. Uridine competing compounds preferably are administered at doses ranging from 5 to 50 mg/kg of body weight 2 to 3 times per day. […] Moreover, such treatment increases by about 4 to 5-fold, the plasma half-life of uridine. These uridine levels are roughly equivalent to those obtained by administering high doses of uridine (1 to 3 g/m^2 per day), without the toxic side effects associated with uridine administration.

The subject of another data set is bone marrow cell growth. The following applies: cited from earlier work; for limiting toxicity: in vivo.
The nature of data set [2]: Single subcutaneous dose of uridine with and without dilazep, plasma/urine uridine pharmacokinetics. The data set is classed as in vivo, rhesus monkeys (Macaca mulatta). The following applies: rhesus monkey, sc. How it is done: Single dose of Uridine and effect of Dilazep
The uridine was administered both with and without dilazep. When dilazep was given it was administered at either 1 or 2 mg/kg of body weight, dissolved in sterile phosphate-buffed saline (pH 7.4). Samples of blood (3 ml) were collected in heparinized tubes at 0, 5, 10, 15 and 30 minutes and 1, 2, 4 and 6 hours after injection. When possible, urine was also collected by cytocentesis at similar time intervals. The plasma and urine samples were frozen at -20° C. until analysis.
The proteins were removed by centrifugation, and sample temperature was maintained at 5° C. The supernant was removed and an equivalent amount of a 1:1 mixture of ice cold trioctylamine and 1,1,2-trichlorotrifluoroethane (freon) was added. […] Reversed-phased chromatography was performed using a Hypersil ODS 5 μm column (Jones Chromatography, Littleton, Colo.). Urine samples were filtered through a 0.45 μm pore size Acro LC 13 filter (Gelman Sciences, Ann Arbor, Mich.) to remove proteins and 50 μl aliquots were analyzed by HPLC. Isocratic elution was performed at 1 ml/min with 10 mM phosphoric acid and 10 μM heptane sulfonic acid (pH 3.1). Column temperature was maintained at 25° C., and the absorbance was measured at 254 nm. […] After adding 5 ml of Econo-Safe scintillation fluor (Research Products International Corp., Mount Prospect, Ill.), radioactivity was measured by using Beckman Model LS 5000TA liquid scintillation counter (Beckman Instruments, Inc., Fullerton, Calif.) equipped with an automatic quenching correction program. […] The detection limits were 2.0 μM.
The pharmacokinetic parameters of uridine was estimated by […] model-independent methods using a SIPHAR/Base program. The AUC was determined by the trapeziodal rule with extrapolation to time infinity using the terminal disposition slope (K) generated by a weighted nonlinear least-squares regression of an exponential fit of the data, with the weighted square factor set as the reciprocal of the calculated concentration squared. […] The peak plasma concentration (Cmax) values and time to peak plasma concentration (Tmax) values were observed experimental values. Renal clearance (CLR) of uridine was calculated by dividing the […] by the AUC.

For data set [3] the following is noted: cited from earlier work.
A further data set concerns heart tissue. The settings on record: heart tissue of rabbits; cited from earlier work.
For data set [4], the system named is hearts. The following applies: hearts of frogs; cited from earlier work.
Data set [5] concerns hearts. The settings on record: hearts of rats; cited from earlier work.
Data set [6] deals with hearts. The following applies: hearts of dogs; cited from earlier work.
Data set [7] has as its system isolated rat skeletal muscle. The settings on record: low concentrations of uridine (10^-4 M); cited from earlier work.
Another data set has as its system GABA receptor. The following applies: cerebellar membranes and brain areas associated with convulsions; cited from earlier work.
In another data set the test system is CCl4 damaged rat livers. The following applies: cited from earlier work.
The subject of data set [8] is hereditary orotic aciduria. The following applies: human, in vivo; cited from earlier work.
The conditions of data set [9]: cited from earlier work. The source holds these as a separate data set.
Setting [10] is: plasma, uridine parameter, 83.3 mg/kg uridine s.c., no dilazep.

Read-outs that look alike come from different tables or passages of the source.

On to `COc1cc(C(=O)OCCCN2CCCN(CCCOC(=O)c3cc(OC)c(OC)c(OC)c3)CC2)cc(OC)c1OC` [dilazep, N,N'-bis[3-(3,4,5-trmethoxybenzoyloxy)propyl] homopiperazine], for which the toxicity result in [1] is on record as “without apparent toxicity”.

Turning to `O=c1[nH]c(=O)n([C@H]2C[C@H](O)[C@@H](CO)O2)cc1F` [FdUrd, 5-fluoro-2'-deoxyuridine], in the data set with bone marrow cell growth, the limiting toxicity result is “myelosuppression”.

`O=c1[nH]cc(F)c(=O)[nH]1` [5-FU, 5-fluorouracil]: the limiting toxicity result with bone marrow cell growth is listed as “myelosuppression”.

Regarding `O=c1ccn([C@@H]2O[C@H](CO)[C@@H](O)[C@H]2O)c(=O)[nH]1` [uridine], the Cmax/C0 in data set [2] (in vivo, 83.3 mg/kg) was 10.7. Besides, in [2] (in vivo, uridine parameter, 83.3 mg/kg uridine s.c., no dilazep, read-out: ClR (renal clearance of uridine) (converted)), the CL renal was 1.12 mL/min/kg. Also, in data set [2] (setting [10]), the AUC stood at 370 µM·h, the peak level (Cmax) was 175 µM and the Tmax came to 30 min. In [3] (endogenous, different species), the “concentration in blood plasma” value was 1 to 5 µM. For the same compound, the “plasma uridine entering the liver by the portal vein degraded in single pass” value in data set [3] (hepatic uridine phosphorylase) is “More than 90%”. Further, the “half life in the plasma” value in data set [3] (in vivo) is recorded as “approximately 2 minutes”. Further, the “myocardial performance, glucose uptake, glycogen synthesis and breakdown of ATP” value with heart tissue is “increase myocardial performance, glucose uptake, glycogen synthesis and the breakdown of ATP”. For the same compound, the myocardial contractility result with hearts [4] is reported as “increase myocardial contractility”. Besides, the myocardial contractility entry in the data set with hearts [5] is “increase myocardial contractility”. In addition, the myocardial contractility result in the data set with hearts [6] is given as “increase myocardial contractility”. Also, the “glucose uptake and glycogen synthesis” value in data set [7] is “increase glucose uptake and glycogen synthesis”. The “effect on the GABA receptor” value in the data set on GABA receptor was “may have an agonist effect on the receptor”. Besides, in the data set with CCl4 damaged rat livers, the “conjugating and excretory functions” value was “normalize conjugating and excretory functions”. In addition, in data set [8], the “management of patients with hereditary orotic aciduria” value is given as “effective to manage patients with hereditary orotic aciduria”. For the same compound, the “urinary excretion of uridine” value in [9] (high doses of uridine (1 to 3 gm/m^2), several times per day) is 15-40 % of the dose. For the same compound, the toxic side effects result in [9] (high doses of uridine) was “phlebitis, pyrogenic reactions and diarrhea”. The “protection (and reversal) from myelosuppression of pyrimidine analogues” value in the data set on bone marrow cell growth (in vitro and in vivo) is given as “Complete protection (and reversal)”.

Take `Cc1cn([C@H]2C[C@H](N=[N+]=[N-])[C@@H](CO)O2)c(=O)[nH]c1=O` [AZT, 3'-azido-3'-deoxythymidine]: in the data set on bone marrow cell growth, the limiting toxicity entry is listed as “myelosuppression”.

The term AUC denotes concentration integrated over time. A low value points to low exposure. What is called Cmax is the peak of the concentration-time curve. In general, Tmax refers to the time from dosing to the highest level.
